US12459951B2, “Compounds that interact with RAS superfamily proteins for treatment of cancers, inflammatory diseases, rasopathies, and fibrotic disease” (SHY Therapeutics, LLC, priority 2022, dated 2025)

How the values were obtained:
KRas G12D mutant = assay: Ras GTP Binding Domain Inhibition Assay (Ras Superfamily Assay); settings: 20 μM compound; for KRas G12D mutant + SOS: % inh.: with SOS; for KRas G12D mutant: % inh.: without SOS
In short: (§1)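 Ni-plate capture of His-tagged protein (10-30 μg/mL, o/n 4° C); cpd 20 μM or dilution series, 1% DMSO, 3 h RT ± Sos 556-1049 last h; 100 nM Cy-labelled GTP 45 min RT; 3× wash; fluorescence read.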

KRas wild type = assay: as above; settings: 20 μM compound; for KRas wild type + SOS: % inh.: with SOS; for KRas wild type: % inh.: without SOS
In short: as §1

Rac-1 = target: T1, Rac-1 (Homo sapiens, UniProt P63000); assay: as above; settings: read-out: Rac-1: % inh.
T1 construct: made in house
In short: as §1

TNF-alpha = TNF-alpha Quantification Assay (ELISA), LPS-stimulated RAW 264.7; assay type: cell-based; settings: Mus musculus, RAW264.7; at 10 μM; read-out: TNFα: % inh.
IL6 = assay: IL-6 Quantification Assay (ELISA), LPS-stimulated RAW 264.7; assay type: cell-based; parameters: inhibition: dose or concentration left out as unconfirmed; settings: Mus musculus, RAW264.7; read-out: IL-6: % inh.
[1] = test system: Smad2/Smad3 phosphorylation; assay: Phospho-Smad2/3 Inhibition Assay (western blot), Panc-1; assay type: cell-based, human; settings: at 10 μM, Panc-1 pancreatic cancer cell line; starred symbols = activation
In short: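 Western blotting of lysates (15-50 μg protein) read phosphorylation of Smad2 Ser465/467 and Smad3 Ser423/425. Before lysis, Panc-1 cells got 1 h of 10 ng/ml TGF-b1 following 3 h compound exposure at 37° C (10 μM final, or serial dilutions for IC50, 0.3% DMSO) after overnight 0.5% FBS starvation.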

Compound	KRas G12D mutant + SOS: % inh. (KRas G12D mutant)	KRas G12D mutant: % inh. (KRas G12D mutant)	KRas wild type + SOS: % inh. (KRas wild type)	KRas wild type: % inh. (KRas wild type)	inhibition at 20 µM (Rac-1) [%]	inhibition at 10 µM (TNF-alpha) [%]	inhibition (IL6) [%]	% inh of Smad2/3 phosphorylation in Panc-1 [1]
Cc1ccnc(Nc2nc(-c3nccn3C)nn3cc(-c4ccn(C5CC5)n4)c(C)c23)c1 [Compound 144, 6-(1-Cyclopropyl-1H-pyrazol-3-yl)-5-methyl-2-(1-methyl-1H-imidazol-2-yl)-N-(4-methylpyridin-2-yl)pyrrolo[2,1-f][1,2,4]triazin-4-amine]	D (D = 76-100% inhibition)	D (D = 76-100% inhibition)	D (D = 76-100% inhibition)	C (C = 50-75% inhibition)	76 to 100	1 to 24	25 to 49	D (D = 76-100% inhibition)
COc1ccnc(Nc2nc(-c3nccn3C)nn3cc(-c4cccnc4)c(C)c23)n1 [Compound 158, N-(4-Methoxy-pyrimidin-2-yl)-5-methyl-2-(1-methyl-1H-imidazol-2-yl)-6-(pyridin-3-yl)pyrrolo[2,1-f][1,2,4]triazin-4-amine]	D (D = 76-100% inhibition)	D (D = 76-100% inhibition)	D (D = 76-100% inhibition)	D (D = 76-100% inhibition)	76 to 100	0	1 to 24	B* (B* = 26-45% activation)
Cc1c(-c2ccn(C)n2)cn2nc(-c3nccn3C)nc(Nc3cc4n(n3)CCO4)c12 [Compound 124, N-(5-Methyl-2-(1-methyl-1H-imidazol-2-yl)-6-(1-methyl-1H-pyrazol-3-yl)pyrrolo[2,1-f][1,2,4]triazin-4-yl)-2,3-dihydropyrazolo[5,1-b]oxazol-6-amine]	C (C = 50-75% inhibition)	C (C = 50-75% inhibition)	C (C = 50-75% inhibition)	D (D = 76-100% inhibition)	76 to 100	1 to 24	25 to 49	A (A = 1-25% inhibition)
Cc1c(-c2ccn(C)n2)cn2nc(-c3nccn3C)nc(Nc3nccc(OCCN(C)C)n3)c12 [Compound 105, N-(4-(2-(Dimethylamino)ethoxy)pyrimidin-2-yl)-5-methyl-2-(1-methyl-1H-imidazol-2-yl)-6-(1-methyl-1H-pyrazol-3-yl)pyrrolo[2,1-f][1,2,4]triazin-4-amine]	D (D = 76-100% inhibition)	D (D = 76-100% inhibition)	D (D = 76-100% inhibition)	C (C = 50-75% inhibition)	76 to 100	0	75 to 100	A (A = 1-25% inhibition)
COc1ccnc(Nc2nc(-c3nccn3C)nn3cc(-c4ccn(C)n4)c(C)c23)n1.Cl [Compound 114, N-(4-Methoxypyrimidin-2-yl)-5-methyl-2-(1-methyl-1H-imidazol-2-yl)-6-(1-methyl-1H-pyrazol-3-yl)pyrrolo[2,1-f][1,2,4]triazin-4-amine hydrochloride salt]	D (D = 76-100% inhibition)	D (D = 76-100% inhibition)	D (D = 76-100% inhibition)	D (D = 76-100% inhibition)	76 to 100	50 to 74	75 to 100	D* (D* = 76-100% activation)
COc1ccnc(Nc2nc(-c3nccn3C)nn3cc(-c4ccn(C(F)F)n4)c(C)c23)n1 [Compound 95, 6-(1-(Difluoromethyl)-1H-pyrazol-3-yl)-N-(4-methoxypyrimidin-2-yl)-5-methyl-2-(1-methyl-1H-imidazol-2-yl)pyrrolo[2,1-f][1,2,4]triazin-4-amine]	C (C = 50-75% inhibition)	C (C = 50-75% inhibition)	B (B = 26-49% inhibition)	C (C = 50-75% inhibition)	76 to 100	1 to 24	1 to 24	C* (C* = 46-75% activation)
Cc1c(-c2ccn(C(C)C)n2)cn2nc(-c3nccn3C)nc(Nc3cc(OCCN(C)C)ncn3)c12 [Compound 123, N-(6-(2-(Dimethylamino)ethoxy)pyrimidin-4-yl)-6-(1-isopropyl-1H-pyrazol-3-yl)-5-methyl-2-(1-methyl-1H-imidazol-2-yl)pyrrolo[2,1-f][1,2,4]triazin-4-amine]	D (D = 76-100% inhibition)	D (D = 76-100% inhibition)	D (D = 76-100% inhibition)	D (D = 76-100% inhibition)	76 to 100	25 to 49	75 to 100	B (B = 26-45% inhibition)
COc1ccnc(Nc2nc(-c3nccn3C)nn3cc(-c4cccnc4)c(-c4cccnc4)c23)c1 [Compound 169, N-(4-methoxypyridin-2-yl)-2-(1-methyl-1H-imidazol-2-yl)-5,6-di(pyridin-3-yl)pyrrolo[2,1-f][1,2,4]triazin-4-amine]	D (D = 76-100% inhibition)	D (D = 76-100% inhibition)	D (D = 76-100% inhibition)	D (D = 76-100% inhibition)	76 to 100	0	1 to 24	C (C = 46-75% inhibition)
CO[C@H]1CC[C@@H](Nc2nc(-c3ccccn3)nn3cc(-c4ccn(C(C)C)n4)c(C)c23)C1 (racemic) [Compound 9, rac 6-(1-Isopropyl-1H-pyrazol-3-yl)-N-((1R,3S)-3-methoxycyclopentyl)-5-methyl-2-(pyridin-2-yl)pyrrolo[2,1-f][1,2,4]triazin-4-amine]	0 (0 = 0% inhibition)	0 (0 = 0% inhibition)	0 (0 = 0% inhibition)	0 (0 = 0% inhibition)	0	0	1 to 24	0 (0 = 0% inhibition)
CO[C@H]1C[C@@H](Nc2nc(-c3nccn3C)nn3cc(-c4cccnc4)c(C)c23)C1 [Compound 153, N-((1s,3s)-3-methoxy-cyclobutyl)-5-methyl-2-(1-methyl-1H-imidazol-2-yl)-6-(pyridin-3-yl)pyrrolo[2,1-f][1,2,4]triazin-4-amine]	C (C = 50-75% inhibition)	C (C = 50-75% inhibition)	B (B = 26-49% inhibition)	B (B = 26-49% inhibition)	50 to 75	0	0	C (C = 46-75% inhibition)
CO[C@H]1C[C@H](Nc2nc(-c3nccn3C)nn3cc(-c4cccnc4)c(-c4ccccn4)c23)C1 [Compound 168, N-((1r,3r)-3-Methoxycyclobutyl)-2-(1-methyl-1H-imidazol-2-yl)-5-(pyridin-2-yl)-6-(pyridin-3-yl)pyrrolo[2,1-f][1,2,4]triazin-4-amine]	A (A = 1-25% inhibition)	B (B = 26-49% inhibition)	A (A = 1-25% inhibition)	A (A = 1-25% inhibition)	1 to 25	25 to 49	1 to 24	A* (A* = 1-25% activation)
COc1cc(Nc2nc(-c3nccn3C)nn3cc(-c4ccn(C5CC5)n4)c(C)c23)ncn1 [Compound 135, 6-(1-Cyclopropyl-1H-pyrazol-3-yl)-N-(6-methoxypyrimidin-4-yl)-5-methyl-2-(1-methyl-1H-imidazol-2-yl)pyrrolo[2,1-f][1,2,4]triazin-4-amine]	D (D = 76-100% inhibition)	D (D = 76-100% inhibition)	D (D = 76-100% inhibition)	D (D = 76-100% inhibition)	76 to 100	1 to 24	25 to 49	A* (A* = 1-25% activation)
CCOc1ccnc(Nc2nc(-c3nccn3C)nn3cc(-c4ccn(C5CC5)n4)c(C)c23)c1 [Compound 141, 6-(1-Cyclopropyl-1H-pyrazol-3-yl)-N-(4-ethoxypyridin-2-yl)-5-methyl-2-(1-methyl-1H-imidazol-2-yl)pyrrolo[2,1-f][1,2,4]triazin-4-amine]	D (D = 76-100% inhibition)	D (D = 76-100% inhibition)	B (B = 26-49% inhibition)	C (C = 50-75% inhibition)	76 to 100	0	25 to 49	D (D = 76-100% inhibition)
